Values quoted from earlier work, collected in patent US20220273628A1, “EFFECTS OF LYSERGIC ACID DIETHYLAMIDE (LSD) AND OF LSD ANALOGS TO ASSIST PSY[…] G[…] DISORDER OR OTHER ANXIETY NOT RELATED TO LIFE-T[…]” (Universitätsspital Basel, priority 2021, published 2022).

Tests used:
[1] = target: 5-HT2A receptor (Homo sapiens, UniProt P28223); conditions: cited from earlier work
[2] = test system: patients with treatment-resistant depression; conditions: 12 patients, cited from earlier work

5-HT2A receptor, sequence (P28223 whole entry): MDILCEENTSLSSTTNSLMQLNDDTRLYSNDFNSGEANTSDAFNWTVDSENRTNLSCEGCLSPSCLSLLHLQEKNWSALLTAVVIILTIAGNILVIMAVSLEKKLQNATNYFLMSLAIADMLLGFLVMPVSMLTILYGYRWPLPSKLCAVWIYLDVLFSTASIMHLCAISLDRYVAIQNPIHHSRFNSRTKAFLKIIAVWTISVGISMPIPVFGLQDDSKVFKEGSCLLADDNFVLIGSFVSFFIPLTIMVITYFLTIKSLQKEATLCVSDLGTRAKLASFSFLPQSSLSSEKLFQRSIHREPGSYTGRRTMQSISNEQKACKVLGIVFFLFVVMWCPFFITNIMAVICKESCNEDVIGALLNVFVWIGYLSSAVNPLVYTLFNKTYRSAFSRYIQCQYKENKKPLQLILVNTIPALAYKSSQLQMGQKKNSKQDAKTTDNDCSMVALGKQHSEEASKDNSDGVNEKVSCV

SMILES | activity at the 5-HT2A receptor [1] | transient anxiety during drug onset ([2]; 10 mg and 25 mg) | mild and transient nausea [2] | transient confusion or thought disorder [2] | transient headache [2]
CN(C)CCc1c[nH]c2ccccc12 [DMT, N,N-dimethyltryptamine] | agonists |  |  |  | 
CN(C)CCc1c[nH]c2cccc(OP(=O)(O)O)c12 [psilocybin] |  | all patients | four | nine | four
COc1cc(CCN)cc(OC)c1OC [mescaline] | agonists |  |  |  | 
